Experimental data taken from ChEMBL document CHEMBL2046319, “Synthesis and cytotoxicity of lupane-type triterpenoid glyceryl esters” (Bioorg Med Chem Lett, 2012).
pIC50: −log10 of the molar value.

Key:
A549 = test: Cytotoxicity against human A549 cells by Alamar Blue dye assay; type: functional, cell-based
DLD-1 = test: Cytotoxicity against human DLD1 cells by Alamar Blue dye assay; type: functional, cell-based
[1] = Cytotoxicity against human WS1 cells by Alamar Blue dye assay; type: cell-based

With `C=C(C)[C@@H]1CC[C@]2(C(=O)OC[C@H]3COC(C)(C)O3)CC[C@]3(C)[C@H](CC[C@@H]4[C@@]5(C)CC[C@H](OC(C)=O)C(C)(C)[C@@H]5CC[C@]43C)[C@@H]12` the pIC50 (A549) was less than 4.00, the pIC50 (DLD-1) was less than 4.00 and the pIC50 [1] was less than 4.00.

In the case of `C=C(C)[C@@H]1CC[C@]2(COC(=O)[C@H](O)CO)CC[C@]3(C)[C@H](CC[C@@H]4[C@@]5(C)CC[C@H](OC(C)=O)C(C)(C)[C@@H]5CC[C@]43C)[C@@H]12`, the pIC50 (A549) was 4.79, the pIC50 (DLD-1) was 4.80 and the pIC50 [1] was 4.80.

`C=C(C)[C@@H]1CC[C@]2(COC(=O)[C@H](O)CO)CC[C@]3(C)[C@H](CC[C@@H]4[C@@]5(C)CC[C@H](OC(=O)[C@H](O)CO)C(C)(C)[C@@H]5CC[C@]43C)[C@@H]12` gave a pIC50 (A549) of 4.51, a pIC50 (DLD-1) of 4.41 and a pIC50 [1] of 4.40.

In the case of `C=C(C)[C@@H]1CC[C@]2(COC(C)=O)CC[C@]3(C)[C@H](CC[C@@H]4[C@@]5(C)CC[C@H](OC(=O)[C@H]6COC(C)(C)O6)C(C)(C)[C@@H]5CC[C@]43C)[C@@H]12`, the pIC50 (A549) was less than 4.00, the pIC50 (DLD-1) was less than 4.00 and the pIC50 [1] was less than 4.00.

Work on `C=C(C)[C@@H]1CC[C@]2(COC(=O)[C@H]3COC(C)(C)O3)CC[C@]3(C)[C@H](CC[C@@H]4[C@@]5(C)CC[C@H](OC(=O)[C@H]6COC(C)(C)O6)C(C)(C)[C@@H]5CC[C@]43C)[C@@H]12` yielded a pIC50 (A549) of less than 4.00, a pIC50 (DLD-1) of less than 4.00 and a pIC50 [1] of less than 4.00.

With `C=C(C)[C@@H]1CC[C@]2(C(=O)OC[C@H](O)CO)CC[C@]3(C)[C@H](CC[C@@H]4[C@@]5(C)CC[C@H](O)C(C)(C)[C@@H]5CC[C@]43C)[C@@H]12` the pIC50 (A549) was 4.80, the pIC50 (DLD-1) was 4.64 and the pIC50 [1] was 4.86.

Work on `C=C(C)[C@@H]1CC[C@]2(COC(C)=O)CC[C@]3(C)[C@H](CC[C@@H]4[C@@]5(C)CC[C@H](OC(=O)[C@H](O)CO)C(C)(C)[C@@H]5CC[C@]43C)[C@@H]12` yielded a pIC50 (A549) of 4.81, a pIC50 (DLD-1) of 4.80 and a pIC50 [1] of 4.82.

For `C=C(C)[C@@H]1CC[C@]2(C(=O)OC[C@H](O)CO)CC[C@]3(C)[C@H](CC[C@@H]4[C@@]5(C)CC[C@H](OC(C)=O)C(C)(C)[C@@H]5CC[C@]43C)[C@@H]12`, the pIC50 (A549) was 4.78, the pIC50 (DLD-1) was 4.74 and the pIC50 [1] was 4.82.

`C=C(C)[C@@H]1CC[C@]2(C(=O)OC[C@H]3COC(C)(C)O3)CC[C@]3(C)[C@H](CC[C@@H]4[C@@]5(C)CC[C@H](O)C(C)(C)[C@@H]5CC[C@]43C)[C@@H]12` showed a pIC50 (A549) of 4.52, a pIC50 (DLD-1) of 4.02 and a pIC50 [1] of 4.37.

`C=C(C)[C@@H]1CC[C@]2(COC(=O)[C@H]3COC(C)(C)O3)CC[C@]3(C)[C@H](CC[C@@H]4[C@@]5(C)CC[C@H](OC(C)=O)C(C)(C)[C@@H]5CC[C@]43C)[C@@H]12` showed a pIC50 (A549) of less than 4.00, a pIC50 (DLD-1) of less than 4.00 and a pIC50 [1] of less than 4.00.
